The values that follow come from ChEMBL document CHEMBL3525983, “Pharmacokinetics, metabolism, and disposition of rivoglitazone, a novel peroxisome proliferator-activated receptor γ agonist, in rats and monkeys” (Drug Metab Dispos, 2011).

Data set [1] can be described thus: Drug excretion in F344/DuCrlCrlj rat feces treated with [14C]rivoglitazone at 1 mg/kg, po administered via gavage measured during 0 to 48 hrs by radio-HPLC analysis. It is filed as ADME, organism-based. More on the design: dose 1 mg/kg, dosed compound name [14C]Rivoglitazone, route oral. Conditions: in vivo.
Data set [2] is described as follows: Drug excretion in F344/DuCrlCrlj rat bile treated with [14C]rivoglitazone at 1 mg/kg, po administered via gavage measured during 0 to 48 hrs by radio-HPLC analysis. The class given is ADME, organism-based. Also on record: dose 1 mg/kg, dosed compound name [14C]Rivoglitazone, route oral. Conditions: in vivo.
Data set [3] in a line: Retention time of the compound by LC-MS/MS analysis. It is filed as physicochemical. Also on record: dosed compound name [14C]Rivoglitazone.
The nature of data set [4]: Drug excretion in F344/DuCrlCrlj rat urine/bile treated with [14C]rivoglitazone at 1 mg/kg, po administered via gavage measured during 0 to 48 hrs by radio-HPLC analysis. It is filed as ADME, organism-based. Also on record: dose 1 mg/kg, dosed compound name [14C]Rivoglitazone, route oral. To be noted: in vivo.
A short description of data set [5]: Drug excretion in F344/DuCrlCrlj rat urine treated with [14C]rivoglitazone at 1 mg/kg, po administered via gavage measured during 0 to 48 hrs by radio-HPLC analysis. It is filed as ADME, organism-based. To be noted: in vivo. More on the design: dose 1 mg/kg, dosed compound name [14C]Rivoglitazone, route oral.
Data set [6] in a line: Drug excretion in F344/DuCrlCrlj rat urine/feces treated with [14C]rivoglitazone at 1 mg/kg, po administered via gavage measured during 0 to 48 hrs by radio-HPLC analysis. The class given is ADME, organism-based. More on the design: dose 1 mg/kg, dosed compound name [14C]Rivoglitazone, route oral. To be noted: in vivo.
Data set [7] is described as follows: Drug excretion in monkey urine/feces treated with [14C]rivoglitazone at 1 mg/kg, po administered via gavage measured during 0 to 72 hrs by radio-HPLC analysis. It is filed as ADME, organism-based, Macaca mulatta. More on the design: dose 1 mg/kg, dosed compound name [14C]Rivoglitazone, route oral. Conditions: rhesus monkey, in vivo.
Data set [8] in a line: Drug excretion in monkey urine treated with [14C]rivoglitazone at 1 mg/kg, po administered via gavage measured during 0 to 72 hrs by radio-HPLC analysis. More on the design: dose 1 mg/kg, dosed compound name [14C]Rivoglitazone, route oral. It is filed as ADME, organism-based, Macaca mulatta. Conditions: rhesus monkey, in vivo.
Data set [9] deals with Rattus norvegicus. The data set is described as follows: Drug level in F344/DuCrlCrlj rat plasma treated with [14C]rivoglitazone assessed as ratio of molar basis AUC (0 to t) at 1 mg/kg, po administered via gavage by LC-MS/MS analysis. It is filed as ADME, organism-based. Also on record: dose 1 mg/kg, dosed compound name [14C]Rivoglitazone, route oral. To be noted: in vivo.

The test system of the next data set is Rhesus monkey. The data set is described as follows: Drug level in monkey plasma treated with [14C]rivoglitazone assessed as ratio of molar basis AUC (0 to t) at 1 mg/kg, po administered via gavage by LC-MS/MS analysis. Also on record: dose 1 mg/kg, dosed compound name [14C]Rivoglitazone, route oral. It is filed as ADME, organism-based, Macaca mulatta. Conditions: in vivo.

For data set [10], the system named is Rattus norvegicus. The data set is described as follows: Drug level in F344/DuCrlCrlj rat plasma treated with [14C]rivoglitazone at 1 to 5 mg/kg, po administered as single dose via gavage by LC-MS/MS analysis. Also on record: dose 1-5 mg/kg, dosed compound name [14C]Rivoglitazone, route oral. It is filed as ADME, organism-based. Conditions: in vivo.
A short description of data set [11]: Drug excretion in monkey feces treated with [14C]rivoglitazone at 1 mg/kg, po administered via gavage measured during 0 to 72 hrs by radio-HPLC analysis. It is filed as ADME, organism-based, Macaca mulatta. Conditions: rhesus monkey, in vivo. More on the design: dose 1 mg/kg, dosed compound name [14C]Rivoglitazone, route oral.

Consider `COc1ccc2nc(COc3ccc(CC(C(N)=O)S(C)(=O)=O)cc3)n(C)c2c1` (stereo not given), for which the Compound recovery entry in [1] is given as “metabolite_not_detected”; in [2], 1%; in data set [4], 2%; in [5] it was 1%; in data set [6] it was 1%; in [7], 1.3%. In addition, in [8], the Compound recovery is listed as 1.3%. This compound gave a Retention_time in data set [3] of 18.1 min. Further, the AUCmet/AUCp in the data set on Rattus norvegicus [9] stood at 0.02%; in the data set on Rhesus monkey, 0.08%.

For `Cn1c(COc2ccc(CC3SC(=O)NC3=O)cc2)nc2ccc(OS(=O)(=O)O)cc21` (stereo not given), the Compound recovery entry is listed as “metabolite_not_detected” in data set [1]; 23% in data set [2]; 33% in data set [4]; “metabolite_detected” with Rattus norvegicus [10]; 10% in data set [5]; 10% in data set [6]. In data set [3], the Retention_time stood at 19 min. For the same compound, the AUCmet/AUCp stood at 23.4% with Rattus norvegicus [9] and 0.64% with Rhesus monkey.

Consider `COc1ccc2nc(COc3ccc(CC4(O)SC(=O)NC4=O)cc3)n(C)c2c1` (stereo not given), for which the Retention_time in [3] is listed as 21.3 min. For the same compound, the Compound recovery in data set [11] is 1.7%; in data set [7] it was 2.1%; in data set [8], 0.4%. Moreover, the AUCmet/AUCp in the data set with Rattus norvegicus [9] is 0.03%; in the data set on Rhesus monkey it was 0.02%.
